# Results from ChEMBL document CHEMBL1201862, “PubChem BioAssay data set” (2004).
# Several values for one entry are separate records, joined by “and”; a condition that tells them apart may be missing. Equal values may be shown once. Activity calls are given as the source filed them.
# Columns and labels:
# [1] = miR-122 activators in hepatoma reporter cells, dose response, cell-based, Huh7 psiCHECK-miR122, Renilla luciferase, cherry-picked (AID 651956); assay type: functional;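 also: huh7 hepatoma cells stably carrying a psiCHECK-2 miR-122 sensor plasmid; renilla luciferase signal reporting endogenous miR-122 activity after 48 h compound exposure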
# [2] = A549 cell cytotoxicity, dose response, cytotoxicity control, 24 h, CellTiter-Glo luminescence, cherry-picks (AID 1053115); assay type: functional, cell-based; details: A549, 24 h
# [3] = HEK293T cytotoxicity, dose response, cytotoxicity control for miR-122 modulator project, cell-based, activator set, cherry-pick (AID 720690); assay type: functional;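 also: HEK293T human cells scored for general mammalian cytotoxicity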
# [4] = HEK293T cytotoxicity, dose response, cytotoxicity control for miR-122 modulator project, cell-based, inhibitor set, cherry-pick, set 2 (AID 720697); assay type: functional
# [5] = HEK293 cell cytotoxicity, dose response, cytotoxicity control, cherry-picks, set 5 (AID 1053117); assay type: functional, cell-based
# [6] = inhibitors of fibronectin matrix deposition, dose response, AH1F cells, Alexa488-FN fluorescence, cherry-picks (AID 1035475); assay type: functional, cell-based
# [7] = molecular target: Metabotropic glutamate receptor 3 (Rattus norvegicus, UniProt P31422); experiment: mGlu3 negative allosteric modulator potency, dose response, HEK/GIRK cells, thallium flux, rat (AID 651839); assay type: functional
# Chain of Metabotropic glutamate receptor 3 (P31422 whole entry): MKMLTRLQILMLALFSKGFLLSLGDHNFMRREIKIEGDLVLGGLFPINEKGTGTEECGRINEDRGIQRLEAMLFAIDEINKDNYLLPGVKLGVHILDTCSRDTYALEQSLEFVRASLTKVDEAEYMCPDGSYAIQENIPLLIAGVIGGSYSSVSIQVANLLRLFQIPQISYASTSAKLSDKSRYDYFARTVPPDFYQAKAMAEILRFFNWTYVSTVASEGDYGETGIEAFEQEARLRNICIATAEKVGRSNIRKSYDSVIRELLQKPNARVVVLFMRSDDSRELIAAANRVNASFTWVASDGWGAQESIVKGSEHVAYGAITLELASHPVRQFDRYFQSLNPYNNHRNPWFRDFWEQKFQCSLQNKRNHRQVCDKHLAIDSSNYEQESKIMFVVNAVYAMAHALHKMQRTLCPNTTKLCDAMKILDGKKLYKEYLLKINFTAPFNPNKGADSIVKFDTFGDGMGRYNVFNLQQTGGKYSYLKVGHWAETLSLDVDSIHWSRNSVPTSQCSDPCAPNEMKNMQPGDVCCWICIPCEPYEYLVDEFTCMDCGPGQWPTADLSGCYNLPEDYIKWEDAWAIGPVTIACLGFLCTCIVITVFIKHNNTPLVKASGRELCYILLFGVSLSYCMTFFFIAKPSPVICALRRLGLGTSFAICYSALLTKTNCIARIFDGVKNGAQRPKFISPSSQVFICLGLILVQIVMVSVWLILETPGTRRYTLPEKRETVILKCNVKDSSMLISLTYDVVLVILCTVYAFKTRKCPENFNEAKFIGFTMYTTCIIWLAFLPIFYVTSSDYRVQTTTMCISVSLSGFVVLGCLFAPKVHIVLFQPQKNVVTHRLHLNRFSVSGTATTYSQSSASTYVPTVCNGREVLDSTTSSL
# [8] = inhibitors of non-replicating M. tuberculosis, dose response, luciferase, dry powder (AID 651620); assay type: functional; details: Mycobacterium tuberculosis
# [9] = inhibitors of non-replicating M. tuberculosis, dose response, luciferase, dry powder (AID 651619); assay type: functional; details: Mycobacterium tuberculosis
# [10] = HIV Env cell-cell fusion inhibitors, dose response, HIV entry, plate reader, dry powder (AID 687023); assay type: functional, cell-based
# [11] = CEM21 cell cytotoxicity, dose response, cytotoxicity control, plate reader, dry powder (AID 687026); assay type: functional, cell-based
# [12] = growth inhibition of intracellular T. cruzi, dose response, cell-based, plate reader, dry powder samples (AID 651845); assay type: functional
# [13] = T. cruzi intracellular amastigote growth inhibition, dose response, imaging, CA-I/72 strain, bovine embryo skeletal muscle, dry powder (AID 651885); assay type: functional, cell-based
# [14] = T. cruzi growth inhibition in host cells, dose response, cell-based, plate reader, dry powder, set 2 (AID 652275); assay type: functional
# [15] = molecular target: Metabotropic glutamate receptor 7 (Homo sapiens, UniProt Q14831); experiment: mGlu7 positive allosteric modulators, dose response, cell-based, calcium mobilization, Galpha15 (AID 743384); assay type: functional
# Chain of Metabotropic glutamate receptor 7 (Q14831 whole entry): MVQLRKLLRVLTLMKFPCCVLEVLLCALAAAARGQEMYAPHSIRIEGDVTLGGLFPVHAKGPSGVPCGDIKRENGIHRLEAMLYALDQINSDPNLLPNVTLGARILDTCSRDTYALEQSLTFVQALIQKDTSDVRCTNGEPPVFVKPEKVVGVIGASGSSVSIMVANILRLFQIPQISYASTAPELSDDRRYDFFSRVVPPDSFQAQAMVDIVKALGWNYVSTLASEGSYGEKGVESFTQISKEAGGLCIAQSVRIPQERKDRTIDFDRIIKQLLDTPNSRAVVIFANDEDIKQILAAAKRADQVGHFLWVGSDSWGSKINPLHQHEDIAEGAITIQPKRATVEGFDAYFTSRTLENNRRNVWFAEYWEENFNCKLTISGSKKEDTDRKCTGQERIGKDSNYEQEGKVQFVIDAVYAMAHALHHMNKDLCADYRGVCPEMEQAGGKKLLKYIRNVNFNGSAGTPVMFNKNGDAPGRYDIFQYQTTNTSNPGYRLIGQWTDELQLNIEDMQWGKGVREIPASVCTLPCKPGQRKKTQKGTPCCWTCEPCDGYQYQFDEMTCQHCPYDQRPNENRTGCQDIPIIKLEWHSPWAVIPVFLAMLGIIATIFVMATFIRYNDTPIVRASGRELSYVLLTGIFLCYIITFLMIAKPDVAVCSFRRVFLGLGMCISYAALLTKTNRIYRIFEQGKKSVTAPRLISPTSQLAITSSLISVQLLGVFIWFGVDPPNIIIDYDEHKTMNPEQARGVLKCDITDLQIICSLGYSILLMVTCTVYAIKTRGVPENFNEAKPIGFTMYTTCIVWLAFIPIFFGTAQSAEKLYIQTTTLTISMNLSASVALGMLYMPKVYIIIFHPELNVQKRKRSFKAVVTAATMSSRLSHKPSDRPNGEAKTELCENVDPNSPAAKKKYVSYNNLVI
compound,measurement,setting,value
C[C@H](CO)N1C[C@H](C)[C@H](CN(C)Cc2ccc(-c3ccccc3)cc2)Oc2cc(C#C[C@@H](C)O)ccc2S1(=O)=O,AC50,[1],37.3 µM (active)
same,AC50,[2],50.9 µM (active)
same,AC50,[3],12.3 µM (active)
same,AC50,[4],2.82 µM (active)
C[C@H]1CN([C@@H](C)CO)C(=O)c2cc(NC(=O)C3CCCCC3)ccc2O[C@@H]1CN(C)Cc1ccc(-c2ccccc2)cc1,AC50,[5],51.3 µM (active)
same,AC50,[6],> 70 µM (inactive)
COc1ccc(-c2ccc3cc(C(=O)N4CCCC(CO)C4)ccc3c2)cc1OC (stereo not given),IC50,[7],2.61 µM
[N-]=[N+]=NCCOCCNC(=O)CCCOc1ccc(C[S+]([O-])c2nnc(-c3ccc(F)cc3)o2)nc1 (stereo not given),IC90,[8],8 µM (active)
same,IC90,[9],8 µM (active)
CCOc1ccc(S(=O)(=O)NCc2ccccc2)cc1,AC50,[10],66.7 µM (active) and > 70 µM (inactive)
same,AC50,[11],> 70 µM (inactive)
CC(C)N1C[C@@H](C)[C@H](CN(C)Cc2cccc(Oc3ccccc3)c2)Oc2c(NC(=O)c3ccncc3)cccc2C1=O,AC50,[12],0.00713 µM (active)
same,IC50,[13],1.5 µM (inconclusive)
same,AC50,[14],0.075 nM (active)
COC(=O)c1ccc(-n2c(C)cc(C(=O)CSCc3cccc(C)c3)c2C)cc1,EC50,[15],10 µM (active)
